Several values for one entry are separate records, joined by “and”; a condition that tells them apart may be missing. Identical values can stand only once. Inconclusive results and toxic doses are left out.
Test system: L1210 leukemia ip in BDF1 mice, survival T/C
Assay: NCI In Vivo Anticancer Drug Screen. Data for tumor model L1210 Leukemia (intraperitoneal) in B6D2F1 (BDF1) mice
Conditions: endpoint: mean survival time, higher = longer survival
Summary of the method: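 Tumor cells were implanted, animals were treated, and survival was followed. The result divides the treated measurement by the vehicle-control measurement.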

[1] = dose: 100.0 mg/kg/injection, schedule: Q01DX001 (ip), vehicle: saline
[2] = dose: 100.0 mg/kg/injection, schedule: Q01DX001 (ip), vehicle: saline with Tween-80
[3] = dose: 200.0 mg/kg/injection, schedule: Q01DX001 (ip), vehicle: saline with Tween-80
[4] = dose: 400.0 mg/kg/injection, schedule: Q01DX001 (ip), vehicle: saline with Tween-80
[5] = dose: 100.0 mg/kg/injection, schedule: Q04DX003 (ip), vehicle: saline
[6] = dose: 200.0 mg/kg/injection, schedule: Q01DX001 (ip), vehicle: saline
[7] = dose: 400.0 mg/kg/injection, schedule: Q01DX001 (ip), vehicle: saline

`OCCN1CCN(CC/C=C2\c3ccccc3COc3ccc(Cl)cc32)CC1` was tested, and the T/C (dose: 0.78 mg/kg/injection, schedule: Q03HX024 (ip), vehicle: saline) was 97 % of control, the T/C (dose: 1.56 mg/kg/injection, schedule: Q03HX024 (ip), vehicle: saline) was 94 % of control and the T/C (dose: 2.0 mg/kg/injection, schedule: Q01DX009 (ip), vehicle: saline) was 88 % of control. For the same compound, the T/C (dose: 3.12 mg/kg/injection, schedule: Q01DX009 (ip), vehicle: saline) was 114 % of control and 123 % of control, the T/C (dose: 3.12 mg/kg/injection, schedule: Q03HX024 (ip), vehicle: saline) was 96 % of control and the T/C (dose: 3.12 mg/kg/injection, schedule: Q04DX003 (ip), vehicle: saline) was 97 % of control. The T/C (dose: 4.0 mg/kg/injection, schedule: Q01DX009 (ip), vehicle: saline) was 98 % of control, the T/C (dose: 6.25 mg/kg/injection, schedule: Q01DX009 (ip), vehicle: saline) was 107 % of control and 122 % of control and the T/C (dose: 6.25 mg/kg/injection, schedule: Q04DX003 (ip), vehicle: saline) was 105 % of control and 120 % of control. The T/C (dose: 8.0 mg/kg/injection, schedule: Q01DX009 (ip), vehicle: saline) was 96 % of control, the T/C (dose: 12.5 mg/kg/injection, schedule: Q01DX001 (ip), vehicle: saline) was 106 % of control and the T/C (dose: 12.5 mg/kg/injection, schedule: Q01DX009 (ip), vehicle: saline) was 114 % of control. For the same compound, the T/C (dose: 12.5 mg/kg/injection, schedule: Q04DX003 (ip), vehicle: saline) was 103 % of control and 117 % of control, the T/C (dose: 16.0 mg/kg/injection, schedule: Q01DX009 (ip), vehicle: saline) was 100 % of control and the T/C (dose: 18.75 mg/kg/injection, schedule: Q01DX001 (ip), vehicle: saline) was 100 % of control. The T/C (dose: 25.0 mg/kg/injection, schedule: Q01DX001 (ip), vehicle: saline) was 120 % of control, the T/C (dose: 25.0 mg/kg/injection, schedule: Q04DX003 (ip), vehicle: saline) was 95 % of control and 119 % of control and the T/C (dose: 37.5 mg/kg/injection, schedule: Q01DX001 (ip), vehicle: saline) was 120 % of control. The T/C (dose: 50.0 mg/kg/injection, schedule: Q01DX001 (ip), vehicle: saline) was 101 % of control, the T/C (dose: 50.0 mg/kg/injection, schedule: Q04DX003 (ip), vehicle: saline) was 101 % of control and the T/C (dose: 75.0 mg/kg/injection, schedule: Q01DX001 (ip), vehicle: saline) was 88 % of control. For the same compound, the T/C [1] was 118 % of control.
In the case of `Cn1nc2c(c1-c1ccc(O)cc1)CCCc1ccccc1-2`, the T/C (dose: 100.0 mg/kg/injection, schedule: Q04DX003 (ip), vehicle: Klucel (hydroxypropylcellulose) (HPC)) is reported as 100 % of control, the T/C (dose: 200.0 mg/kg/injection, schedule: Q04DX003 (ip), vehicle: Klucel (hydroxypropylcellulose) (HPC)) is reported as 98 % of control and the T/C (dose: 400.0 mg/kg/injection, schedule: Q04DX003 (ip), vehicle: Klucel (hydroxypropylcellulose) (HPC)) is reported as 98 % of control.
With `Cc1coc(NS(=O)(=O)c2ccc(N=Nc3c(N)n(C)c(=O)n(C)c3=O)cc2)c1C` the T/C (dose: 100.0 mg/kg/injection, schedule: Q01DX001 (ip), vehicle: carboxymethylcellulose (CMC)) was 98 % of control, the T/C (dose: 200.0 mg/kg/injection, schedule: Q01DX001 (ip), vehicle: carboxymethylcellulose (CMC)) was 95 % of control and the T/C (dose: 400.0 mg/kg/injection, schedule: Q01DX001 (ip), vehicle: carboxymethylcellulose (CMC)) was 98 % of control.
With `O=S(=O)(OCCCl)c1ccc(Cl)c(Cl)c1` the T/C [2] was 92 % of control, the T/C [3] was 100 % of control and the T/C [4] was 107 % of control.
With `O=COCC1CCC(NC(=O)N(CCCl)N=O)CC1` (stereo not given) the T/C (dose: 2.6 mg/kg/injection, schedule: Q01DX001 (ip), vehicle: Klucel (hydroxypropylcellulose) (HPC)) was 103 % of control, the T/C (dose: 4.0 mg/kg/injection, schedule: Q01DX001 (ip), vehicle: Klucel (hydroxypropylcellulose) (HPC)) was 111 % of control and the T/C (dose: 6.0 mg/kg/injection, schedule: Q01DX001 (ip), vehicle: Klucel (hydroxypropylcellulose) (HPC)) was 123 % of control. The T/C (dose: 9.0 mg/kg/injection, schedule: Q01DX001 (ip), vehicle: Klucel (hydroxypropylcellulose) (HPC)) was 227 % of control, the T/C (dose: 12.0 mg/kg/injection, schedule: Q01DX001 (ip), vehicle: Klucel (hydroxypropylcellulose) (HPC)) was 293 % of control and 319 % of control and the T/C (dose: 15.0 mg/kg/injection, schedule: Q01DX001 (ip), vehicle: Klucel (hydroxypropylcellulose) (HPC)) was 273 % of control. The T/C (dose: 18.0 mg/kg/injection, schedule: Q01DX001 (ip), vehicle: Klucel (hydroxypropylcellulose) (HPC)) was 328 % of control and the T/C (dose: 26.0 mg/kg/injection, schedule: Q01DX001 (ip), vehicle: Klucel (hydroxypropylcellulose) (HPC)) was 280 % of control.
`CCCCCCCOCc1ccccc1` was tested, and the T/C [5] was 111 % of control, the T/C (dose: 200.0 mg/kg/injection, schedule: Q04DX003 (ip), vehicle: acetone) was 94 % of control and the T/C (dose: 300.0 mg/kg/injection, schedule: Q04DX003 (ip), vehicle: acetone) was 96 % of control. The T/C (dose: 400.0 mg/kg/injection, schedule: Q04DX003 (ip), vehicle: saline) was 97 % of control.
For `CCCCCCCCN(C)Cc1cc(C(C)(C)C)cc(-c2ccccc2)c1O`, the T/C [2] was 94 % of control, the T/C [3] was 90 % of control and the T/C [4] was 92 % of control.
In the case of `OC1CCC2C3CC=CC3C12` (stereo not given), the T/C (dose: 75.0 mg/kg/injection, schedule: Q01DX001 (ip), vehicle: other) is reported as 93 % of control, the T/C (dose: 150.0 mg/kg/injection, schedule: Q01DX001 (ip), vehicle: other) is reported as 98 % of control and the T/C (dose: 300.0 mg/kg/injection, schedule: Q01DX001 (ip), vehicle: other) is reported as 106 % of control.
With `Nc1ncnc2c1ncn2C1OC(CO)C(NC(=O)C(CCCCNC(=O)OCc2ccccc2)NC(=O)OCc2ccccc2)C1O` (stereo not given) the T/C [1] was 102 % of control, the T/C [6] was 100 % of control and the T/C [7] was 100 % of control.
With `Nc1c(Br)cccc1C(=O)O` the T/C [1] was 104 % of control, the T/C [6] was 102 % of control and the T/C [7] was 101 % of control.
`Cc1ccc(S(=O)(=O)NCCN)cc1` was tested, and the T/C [5] was 97 % of control and the T/C (dose: 200.0 mg/kg/injection, schedule: Q04DX003 (ip), vehicle: saline) was 97 % of control.
With `COc1cc(Br)c(CCC(N)=O)cc1OC` the T/C (dose: 100.0 mg/kg/injection, schedule: Q04DX003 (ip), vehicle: saline with Tween-80) was 96 % of control, the T/C (dose: 200.0 mg/kg/injection, schedule: Q04DX003 (ip), vehicle: saline with Tween-80) was 95 % of control and the T/C (dose: 400.0 mg/kg/injection, schedule: Q04DX003 (ip), vehicle: saline with Tween-80) was 93 % of control.
In the case of `CC(C)C(CCN1CCCCC1)(CN=C(N)N)c1cccc2ccccc12` (stereo not given), the T/C (dose: 5.0 mg/kg/injection, schedule: Q01DX009 (ip), vehicle: saline) is reported as 99 % of control, the T/C (dose: 6.25 mg/kg/injection, schedule: Q04DX002 (ip), vehicle: saline) is reported as 100 % of control and the T/C (dose: 10.0 mg/kg/injection, schedule: Q01DX009 (ip), vehicle: saline) is reported as 100 % of control. For the same compound, the T/C (dose: 12.5 mg/kg/injection, schedule: Q04DX002 (ip), vehicle: saline) was 93 % of control, the T/C (dose: 20.0 mg/kg/injection, schedule: Q01DX009 (ip), vehicle: saline) was 101 % of control and the T/C (dose: 25.0 mg/kg/injection, schedule: Q04DX002 (ip), vehicle: saline) was 97 % of control.
For `CC(=O)OCCC(CCOC(C)=O)=C1N=C(c2ccccc2)OC1=O`, the T/C (dose: 100.0 mg/kg/injection, schedule: Q01DX009 (ip), vehicle: saline) was 97 % of control, the T/C (dose: 100.0 mg/kg/injection, schedule: Q04DX003 (ip), vehicle: other) was 101 % of control and the T/C (dose: 200.0 mg/kg/injection, schedule: Q01DX009 (ip), vehicle: saline) was 105 % of control. The T/C (dose: 200.0 mg/kg/injection, schedule: Q04DX003 (ip), vehicle: other) was 104 % of control, the T/C (dose: 400.0 mg/kg/injection, schedule: Q01DX009 (ip), vehicle: saline) was 92 % of control and the T/C (dose: 400.0 mg/kg/injection, schedule: Q04DX003 (ip), vehicle: other) was 101 % of control.
In the case of `CC(N)CCCO` (stereo not given), the T/C (dose: 5.0 mg/kg/injection, schedule: Q01DX001 (ip), vehicle: saline) is reported as 103 % of control, the T/C (dose: 10.0 mg/kg/injection, schedule: Q01DX001 (ip), vehicle: saline) is reported as 97 % of control and the T/C (dose: 20.0 mg/kg/injection, schedule: Q01DX001 (ip), vehicle: saline) is reported as 103 % of control. For the same compound, the T/C (dose: 40.0 mg/kg/injection, schedule: Q01DX001 (ip), vehicle: saline) was 101 % of control and the T/C (dose: 80.0 mg/kg/injection, schedule: Q01DX001 (ip), vehicle: saline) was 103 % of control.
In the case of `CC(=O)CC(=O)OCC1COCO1` (stereo not given), the T/C (dose: 222.0 mg/kg/injection, schedule: Q01DX Z (ip), vehicle: methylcellulose (MC)) is reported as 104 % of control, the T/C (dose: 333.0 mg/kg/injection, schedule: Q01DX Z (ip), vehicle: methylcellulose (MC)) is reported as 95 % of control and the T/C (dose: 500.0 mg/kg/injection, schedule: Q01DX Z (ip), vehicle: methylcellulose (MC)) is reported as 107 % of control.
